The record followed here is US5776720A, “Assay reagent” (priority 1995, dated 1998).

Structures can show the parent of a compound that is named as a salt.

Common to all, as to assay type: cell-based, human
Common to all, as to design: unit not given here
Conditions in all cases: normal donors

Assay [1] concerns lymphocytes. Description: Normal leukocyte enzyme activity (Table 3A), lymphocytes. From the text:
(§1) The measured fluorescence intensity can be converted from mean channel fluorescence (in peak or integrated mode) to MESF (molecules of equivalent soluble fluorochrome, Flow Cytometry Standards Corp. , San Juan, Puerto Rico) or International Units of hydrolysis per cell. A normal range of enzyme activity is established by assaying males and females in sufficient quantity to characterize the population levels statistically.
(§2) A normal in house adult donor pool was drawn, recording sex and determining that no known disease state was present at the time of sample draw. Criteria for rejecting samples included patients under medication, patients with infection or inflammation of any type, colds and flu as well as any known medical illness such as cancer, heart ailment and high blood pressure. A donor list of 75 patients has been developed and a mean and 2 sd range established. A subgroup of "super normals" was developed from this list by examining the 75 patients to determine which group falls closest to the mean for all enzymes in all cell types tested. These patients were used as the "wellness index" or best group of "normalcy" patients. If a study required the use of children or newborns then this same format was used to develop a data base for these age groups.

Assay [2] deals with granulocytes. Kind of assay: Normal leukocyte enzyme activity (Table 3A), granulocytes.
Description: as §1, §2

Assay [3] deals with monocytes. Kind of assay: Normal leukocyte enzyme activity (Table 3A), monocytes.
Description: as §1, §2

As for `C[C@H](N)C(=O)N[C@@H](C)C(=O)Nc1ccc2c(c1)Oc1cc(NC(=O)[C@H](C)NC(=O)[C@H](C)N)ccc1C21OC(=O)c2ccccc21` [AA--TFA, (H--L--Ala--Ala)2 Rho 110.2TFA], in assay [1], the “NORMAL LEUKOCYTE ENZYME ACTIVITY, LYMPHS Mean” value was 56.95. For the same compound, in assay [2], the “NORMAL LEUKOCYTE ENZYME ACTIVITY, GRANS Mean” value is on record as 154.81. Besides, the “NORMAL LEUKOCYTE ENZYME ACTIVITY, MONOS Mean” value in assay [3] worked out at 158.31.

As for `C[C@H](N)C(=O)Nc1ccc2c(c1)Oc1cc(NC(=O)[C@H](C)N)ccc1C21OC(=O)c2ccccc21` [ALA, (Ala)2 Rho 110], the “NORMAL LEUKOCYTE ENZYME ACTIVITY, LYMPHS Mean” value in assay [1] stood at 75.85. Moreover, the “NORMAL LEUKOCYTE ENZYME ACTIVITY, GRANS Mean” value in assay [2] is given as 149.02. Further, the “NORMAL LEUKOCYTE ENZYME ACTIVITY, MONOS Mean” value in assay [3] is recorded as 172.33.

For `N=C(N)NCCC[C@H](N)C(=O)Nc1ccc2c(c1)Oc1cc(NC(=O)[C@@H](N)CCCNC(=N)N)ccc1C21OC(=O)c2ccccc21` (stereo partly drawn) [ARG, (H--L--Arg)2 Rho 110.4TFA], the “NORMAL LEUKOCYTE ENZYME ACTIVITY, LYMPHS Mean” value in assay [1] amounted to 1.47. Besides, the “NORMAL LEUKOCYTE ENZYME ACTIVITY, GRANS Mean” value in assay [2] is 5.16. In addition, the “NORMAL LEUKOCYTE ENZYME ACTIVITY, MONOS Mean” value in assay [3] worked out at 10.34.

Regarding `N[C@@H](CC(=O)O)C(=O)Nc1ccc2c(c1)Oc1cc(NC(=O)[C@@H](N)CC(=O)O)ccc1C21OC(=O)c2ccccc21` [ASP, (H--L--Asp)2 --Rho 110.2TFA], the “NORMAL LEUKOCYTE ENZYME ACTIVITY, LYMPHS Mean” value in assay [1] is listed as 0.26. Besides, the “NORMAL LEUKOCYTE ENZYME ACTIVITY, GRANS Mean” value in assay [2] is 0.45. Also, the “NORMAL LEUKOCYTE ENZYME ACTIVITY, MONOS Mean” value in assay [3] was 0.66.

Turning to `O=C(CCl)Oc1ccc2c(c1)Oc1cc(OC(=O)CCl)ccc1C21OC(=O)c2ccccc21` [CHLOAC, FL(chloroacetate)2], in assay [1], the “NORMAL LEUKOCYTE ENZYME ACTIVITY, LYMPHS Mean” value was determined as 2.49. Besides, the “NORMAL LEUKOCYTE ENZYME ACTIVITY, GRANS Mean” value in assay [2] is 6.48. In assay [3], the “NORMAL LEUKOCYTE ENZYME ACTIVITY, MONOS Mean” value came out at 7.33.

Consider `CC(=O)Oc1ccc2c(c1)Oc1cc(OC(C)=O)ccc1C21OC(=O)c2ccccc21` [DIACET 6.5, Fluorescein (acetate)2, reference compound], for which, in assay [1], the “NORMAL LEUKOCYTE ENZYME ACTIVITY, LYMPHS Mean” value amounted to 109.89. The “NORMAL LEUKOCYTE ENZYME ACTIVITY, GRANS Mean” value in assay [2] is on record as 408.88. Also, in assay [3], the “NORMAL LEUKOCYTE ENZYME ACTIVITY, MONOS Mean” value was 534.00.

Regarding `CC(=O)Oc1ccc2c(c1)Oc1cc(OC(C)=O)ccc1C21OC(=O)c2ccccc21` [DIACET 7.5, Fluorescein (acetate)2, reference compound], the “NORMAL LEUKOCYTE ENZYME ACTIVITY, LYMPHS Mean” value in assay [1] was 89.30. In assay [2], the “NORMAL LEUKOCYTE ENZYME ACTIVITY, GRANS Mean” value is recorded as 348.01. Moreover, the “NORMAL LEUKOCYTE ENZYME ACTIVITY, MONOS Mean” value in assay [3] was found to be 432.78.

Take `CCCC(=O)Oc1ccc2c(c1)Oc1cc(OC(=O)CCC)ccc1C21OC(=O)c2ccccc21` [DIBUT 6.5, FL(butyrate)2]: the “NORMAL LEUKOCYTE ENZYME ACTIVITY, LYMPHS Mean” value in assay [1] is 4.08. Further, in assay [2], the “NORMAL LEUKOCYTE ENZYME ACTIVITY, GRANS Mean” value was found to be 6.43. The “NORMAL LEUKOCYTE ENZYME ACTIVITY, MONOS Mean” value in assay [3] is on record as 10.37.

`CCCCCCC(=O)Oc1ccc2c(c1)Oc1cc(OC(=O)CCCCCC)ccc1C21OC(=O)c2ccccc21` [DIHEP 6.5, FL(heptanoate)2]: the “NORMAL LEUKOCYTE ENZYME ACTIVITY, LYMPHS Mean” value in assay [1] amounted to 9.17. Moreover, in assay [2], the “NORMAL LEUKOCYTE ENZYME ACTIVITY, GRANS Mean” value is given as 18.57. For the same compound, in assay [3], the “NORMAL LEUKOCYTE ENZYME ACTIVITY, MONOS Mean” value amounted to 32.25.

Turning to `CCCCCCC(=O)Oc1ccc2c(c1)Oc1cc(OC(=O)CCCCCC)ccc1C21OC(=O)c2ccccc21` [DIHEP 7.5, FL(heptanoate)2], the “NORMAL LEUKOCYTE ENZYME ACTIVITY, LYMPHS Mean” value in assay [1] was determined as 9.73. For the same compound, in assay [2], the “NORMAL LEUKOCYTE ENZYME ACTIVITY, GRANS Mean” value was determined as 20.41. Also, the “NORMAL LEUKOCYTE ENZYME ACTIVITY, MONOS Mean” value in assay [3] amounted to 36.15.

`CCCCCC(=O)Oc1ccc2c(c1)Oc1cc(OC(=O)CCCCC)ccc1C21OC(=O)c2ccccc21` [DIHEX 6.5, FL(hexanoate)2]: in assay [1], the “NORMAL LEUKOCYTE ENZYME ACTIVITY, LYMPHS Mean” value turned out to be 15.10. Moreover, the “NORMAL LEUKOCYTE ENZYME ACTIVITY, GRANS Mean” value in assay [2] was 33.84. In addition, in assay [3], the “NORMAL LEUKOCYTE ENZYME ACTIVITY, MONOS Mean” value was found to be 72.87.

`CCCCCC(=O)Oc1ccc2c(c1)Oc1cc(OC(=O)CCCCC)ccc1C21OC(=O)c2ccccc21` [DIHEX 7.5, FL(hexanoate)2]: the “NORMAL LEUKOCYTE ENZYME ACTIVITY, LYMPHS Mean” value in assay [1] came out at 7.54. In addition, in assay [2], the “NORMAL LEUKOCYTE ENZYME ACTIVITY, GRANS Mean” value was determined as 17.57. Further, the “NORMAL LEUKOCYTE ENZYME ACTIVITY, MONOS Mean” value in assay [3] worked out at 37.22.

In the case of `CCCCCCCCCCCCCCCC(=O)Oc1ccc2c(c1)Oc1cc(OC(=O)CCCCCCCCCCCCCCC)ccc1C21OC(=O)c2ccccc21` [DIPAL 6.5, FL(palmitate)2], the “NORMAL LEUKOCYTE ENZYME ACTIVITY, LYMPHS Mean” value in assay [1] was found to be 0.15. The “NORMAL LEUKOCYTE ENZYME ACTIVITY, GRANS Mean” value in assay [2] came out at 0.14. Moreover, the “NORMAL LEUKOCYTE ENZYME ACTIVITY, MONOS Mean” value in assay [3] came out at 0.30.
